In paper PMC12332266 (Frontiers in Pharmacology, 2025):
“And” between values parts separate entries of the source, which are not always exact repeats. Equal entries are not always repeated. Where two headings read alike, the source gives them in different places.

Legend:
[1] = system: hiPSC-CM (iCell Cardiomyocytes^2); test: Intracellular miRNA expression by RT-qPCR in hiPSC-CM pellets after 72-hour treatment; conditions: for fold induction at 0.01 µM / fold induction at 0.03 µM / fold induction at 0.1 µM / fold induction at 0.3 µM / fold induction at 1 µM / fold induction at 3 µM: Homo sapiens
Experimental: (§1) Culture media change was performed every 2 days.
Total RNA was extracted from hiPSC-CM using the miRNeasy 96 Kit (Qiagen, Hilden, Germany) following the manufacturer’s recommendations. After the extraction, RNA purity was assessed by NanoDrop™ 8000 Spectrophotometer (Thermo Fisher Scientific Inc.). 5–10 ng/μL of RNA per sample were reverse transcribed and pre-amplified by using the TaqMan™ Advanced miRNA cDNA Synthesis Kit (Thermo Fisher Scientific Inc.). The synthesized cDNA was used for RT-qPCR with selected TaqMan™ assays (Thermo Fischer Scientific Inc.). RT-qPCR was carried out following the Applied Biosciences TaqMan miRNA expression assay protocol on a ViiA7 instrument (Thermo Fisher Scientific, Inc.). […] Therefore, to maximize the number of drugs and concentrations, explored in the same study, we pooled the triplicates for intracellular profiling of miRNAs. Therefore, no statistical analysis was performed on the data of miRNA profiling in the pellets of hiPSC-CM.
Following RTCA CardioECR assessment, hiPSC-CM cell pellets were collected, and total RNA was extracted and purified to investigate miRNAs upregulation by RT-qPCR. […] For the initial assessment of intracellular miRNAs in 12 different treatments, encompassing various drug classes, we used a panel of 17 miRNAs, which we selected from the publicly available data focusing mainly on in vitro models and structural cardiotoxicants (Supplementary Table S2).

[2] = system: hiPSC-CM (iCell Cardiomyocytes^2); test: RTCA CardioECR assessment (impedance and electrophysiology parameters)
Experimental: as §1
After seeding on fibronectin-coated xCELLigence ePlates (Agilent Technologies, Inc. Santa Clara, CA, USA), iCell^2 CM were monitored continuously through impedance electrodes. The following impedance parameters were measured: Cell Index (CI, measure of cell “health” and monolayer integrity), beating rate (BR) and amplitude (CI Amplitude, magnitude of contraction). Electrophysiology-like parameters (Field Potential Duration (FPD), considered as a surrogate for QT in in vivo studies, and Spike Amplitude (SA), depolarization induced by Na^+ channel opening) were measured starting from day 4–6, following the monolayer formation. […] All RTCA CardioECR data were double normalized (DMSO control and the baseline) with no further statistical group comparison for the normalized parameters. The variability of the data within the treatment groups was assessed by standard deviation.

[3] = ref extensive literature search, cited from earlier work
[4] = 72 h, read-out: hsa-miR-7-5p fold change
[5] = 72 h, read-out: hsa-miR-29a-5p fold change
[6] = 72 h, read-out: hsa-miR-96-5p fold change
[7] = 72 h, read-out: hsa-miR-126-3p fold change
[8] = 72 h, read-out: hsa-miR-133b fold change
[9] = 72 h, read-out: hsa-miR-146b-5p fold change
[10] = 72 h, read-out: hsa-miR-182-5p fold change
[11] = 72 h, read-out: hsa-miR-185-3p fold change
[12] = 72 h, read-out: hsa-miR-187-3p fold change
[13] = 72 h, read-out: hsa-miR-208b-3p fold change
[14] = 72 h, read-out: hsa-miR-365a-5p fold change
[15] = 72 h, read-out: hsa-miR-[…] change
[16] = hiPSC-CM, 72-hour treatment, lowest concentration causing at least 20% change from baseline

CCN[C@@H](C)Cc1cccc(C(F)(F)F)c1 [Dexfenfluramine]
fold induction at 0.01 µM [1, 4]: 0.8 | fold induction at 0.03 µM [1, 4]: 0.8 | fold induction at 0.1 µM [1, 4]: 0.7 | fold induction at 0.3 µM [1, 4]: 1 | fold induction at 0.01 µM [1, 5]: 1.8 | fold induction at 0.03 µM [1, 5]: 0.8 | fold induction at 0.3 µM [1, 5]: 0.7 | fold induction at 0.01 µM [1, 6]: 1.8 | fold induction at 0.03 µM [1, 6]: 0.8 | fold induction at 0.3 µM [1, 6]: 0.7 | fold induction at 0.01 µM [1, 7]: 1.3 | fold induction at 0.03 µM [1, 7]: 2.3 | fold induction at 0.1 µM [1, 7]: 0.6 | fold induction at 0.3 µM [1, 7]: 0.5 | fold induction at 0.01 µM [1, 8]: 4 | fold induction at 0.03 µM [1, 8]: 0.7 | fold induction at 0.1 µM [1, 8]: 0.5 | fold induction at 0.3 µM [1, 8]: 0.1 | fold induction at 0.01 µM [1, 9]: 0.5 | fold induction at 0.03 µM [1, 9]: 0.7 | fold induction at 0.1 µM [1, 9]: 0.4 | fold induction at 0.3 µM [1, 9]: 0.7 | fold induction at 0.01 µM [1, 10]: 0.01 | fold induction at 0.03 µM [1, 10]: 0.004 | fold induction at 0.1 µM [1, 10]: 0.003 | fold induction at 0.3 µM [1, 10]: 0.01 | fold induction at 0.01 µM [1, 11]: 2.1 | fold induction at 0.03 µM [1, 11]: 1.2 | fold induction at 0.1 µM [1, 11]: 1 | fold induction at 0.3 µM [1, 11]: 0.7 | fold induction at 0.01 µM [1, 12]: 0.6 | fold induction at 0.03 µM [1, 12]: 0.7 | fold induction at 0.1 µM [1, 12]: 0.7 | fold induction at 0.3 µM [1, 12]: 0.6 | fold induction at 0.01 µM [1, 13]: 1.1 | fold induction at 0.03 µM [1, 13]: 1 | fold induction at 0.1 µM [1, 13]: 0.8 | fold induction at 0.3 µM [1, 13]: 0.9 | fold induction at 0.03 µM [1, 14]: 2.6 | fold induction at 0.3 µM [1, 14]: 8.9 | fold induction at 0.01 µM [1, 15]: 1.2 | fold induction at 0.03 µM [1, 15]: 0.9 | fold induction at 0.1 µM [1, 15]: 0.8 | fold induction at 0.3 µM [1, 15]: 0.8 | miRNAs upregulated at the MEC overall (hiPSC-CM pellet) ([1]; fold change ≥2, 72 h): miR-133b, miR-185-3p | miRNAs hiPSC-CM pellet, MEC overall ([1]; lowest concentration tested which produced miRNA upregulation (fold change ≥2), 72 h): 0.01 µM | Spike Amplitude (SA) MEC ([2]; hiPSC-CM, 72-hour treatment, at least 40% change): 0.01 µM | Beating rate (BR) MEC [2, 16]: ND (ND – not detected, magnitude of change was lower than 20%) | Cell index (CI) MEC [2, 16]: ND (ND – not detected, magnitude of change was lower than 20%) | RTCA, MEC (BR) ([2]; hiPSC-CM, change ≥20%, Table 2): ND (ND – not detected, magnitude of change was lower than 20% for CI/BR) | RTCA, MEC (CI) ([2]; hiPSC-CM, change ≥20%, Table 2): ND (ND – not detected, magnitude of change was lower than 20% for CI/BR)

COc1cc([C@@H]2c3cc4c(cc3[C@@H](O[C@@H]3O[C@@H]5CO[C@@H](C)O[C@H]5[C@H](O)[C@H]3O)[C@H]3COC(=O)[C@H]23)OCO4)cc(OC)c1O [Etoposide]
Cmax total ([3]; Supplementary Table 1): 33.4 µM | Cmax total ([3]; Table 1): 33.40 µM | miRNAs hiPSC-CM pellet, MEC overall [1]: 0.1 µM | miRNAs upregulated at the MEC overall (hiPSC-CM pellet) [1]: miR-187-3p | Field Potential Duration MEC ([2]; human, 72 h): 3 µM | Spike Amplitude (SA) MEC ([2]; human, 72 h): 0.3 µM

COc1nc(N)nc2c1ncn2[C@@H]1O[C@H](COP(=O)(N[C@@H](C)C(=O)OCC(C)(C)C)Oc2cccc3ccccc23)[C@@H](O)[C@@]1(C)O (stereo partly drawn) [BMS-986094]
intracellular miRNA upregulation in hiPSC-CM, in words [1]: lowest upregulation of miRNAs was detected at the highest concentration tested | miRNAs hiPSC-CM pellet, MEC overall [1]: 0.1 µM | miRNAs upregulated at the MEC overall (hiPSC-CM pellet) [1]: miR-29a-5p, miR-365a-5p | fold induction at 0.1 µM [1, 4]: 1.7 | fold induction at 0.3 µM [1, 4]: 1 | fold induction at 1 µM [1, 4]: 1.3 | fold induction at 3 µM [1, 4]: 1.3 | fold induction at 0.1 µM [1, 5]: 6.3 | fold induction at 0.3 µM [1, 5]: 1 | fold induction at 1 µM [1, 5]: 1.2 | fold induction at 3 µM [1, 5]: 0.5 | fold induction at 0.1 µM [1, 7]: 0.3 | fold induction at 0.3 µM [1, 7]: 2.9 | fold induction at 1 µM [1, 7]: 2.8 | fold induction at 3 µM [1, 7]: 5.2 | fold induction at 0.1 µM [1, 8]: 1.3 | fold induction at 0.3 µM [1, 8]: 3.3 | fold induction at 1 µM [1, 8]: 2 | fold induction at 3 µM [1, 8]: 1.3 | fold induction at 0.1 µM [1, 9]: 1.8 | fold induction at 0.3 µM [1, 9]: 4.2 | fold induction at 1 µM [1, 9]: 11.3 | fold induction at 3 µM [1, 9]: 1.4 | fold induction at 0.1 µM [1, 10]: 1 | fold induction at 0.3 µM [1, 10]: 8.8 | fold induction at 1 µM [1, 10]: 7.1 | fold induction at 3 µM [1, 10]: 5.5 | fold induction at 0.3 µM [1, 11]: 0.5 | fold induction at 1 µM [1, 11]: 3.3 | fold induction at 3 µM [1, 11]: 8.2 | fold induction at 0.1 µM [1, 12]: 0.5 | fold induction at 0.3 µM [1, 12]: 2.7 | fold induction at 1 µM [1, 12]: 8.8 | fold induction at 0.1 µM [1, 13]: 1.7 | fold induction at 0.3 µM [1, 13]: 1.3 | fold induction at 1 µM [1, 13]: 1.1 | fold induction at 3 µM [1, 13]: 1 | fold induction at 0.1 µM [1, 14]: 2.2 | fold induction at 0.3 µM [1, 14]: 0.7 | fold induction at 1 µM [1, 14]: 1.3 | fold induction at 3 µM [1, 14]: 0.7 | Beating Rate MEC ([2]; human, 72 h): 0.048 µM | RTCA, MEC (BR) ([2]; human, 72 h): 0.048 µM | Spike Amplitude (SA) MEC ([2]; human, 72 h): 0.16 µM

CC(=O)O[C@H]1C(=O)[C@@]2(C)[C@H]([C@H](OC(=O)c3ccccc3)[C@]3(O)C[C@H](OC(=O)[C@H](O)[C@@H](NC(=O)c4ccccc4)c4ccccc4)C(C)=C1C3(C)C)[C@]1(OC(C)=O)CO[C@@H]1C[C@@H]2O [Paclitaxel]
miRNAs hiPSC-CM pellet, MEC overall [1]: 0.3 µM | miRNAs upregulated at the MEC overall (hiPSC-CM pellet) [1]: miR-96-5p, miR-133b | RTCA, MEC (CI) ([2]; hiPSC-CM, change ≥20%, Table 2): 0.3 µM | Beating Rate MEC ([2]; human, 72 h): 3 µM | Beating rate (BR) MEC ([2]; human, 72 h): 3 µM | Contractility Amplitude MEC ([2]; human, 72 h): 0.3 µM | Field Potential Duration MEC ([2]; human, 72 h): 3 µM | RTCA, MEC (BR) ([2]; human, 72 h): 3 µM | Spike Amplitude (SA) MEC ([2]; human, 72 h): 3 µM

O=C1c2c(O)ccc(O)c2C(=O)c2c(NCCNCCO)ccc(NCCNCCO)c21 [Mitoxantrone]
miRNAs hiPSC-CM pellet, MEC overall [1]: 0.1 µM | miRNAs upregulated at the MEC overall (hiPSC-CM pellet) [1]: miR-96 -5p, miR-146b-5p, miR-182-5p, miR-187-3p, miR-365a-5p | RTCA, MEC (CI) ([2]; hiPSC-CM, change ≥20%, Table 2): 0.1 µM (CI, BR) | Beating Rate MEC ([2]; human, 72 h): 0.1 µM | Beating rate (BR) MEC ([2]; human, 72 h): 0.1 µM | Contractility Amplitude MEC ([2]; human, 72 h): 0.1 µM | Field Potential Duration MEC ([2]; human, 72 h): 0.1 µM | RTCA, MEC (BR) ([2]; human, 72 h): 0.1 µM (CI, BR) | Spike Amplitude (SA) MEC ([2]; human, 72 h): 0.1 µM

Endothelin-1
hsa-miR-133b fold change [1]: 2.7 and 3.5 and 3.1 | hsa-miR-208b-3p fold change [1]: 1.6 and 1.5 and 1.1 and 1.0 | Contractility Amplitude magnitude of effect at MEC ([2]; hiPSC-CM, 72-hour treatment): -20% | Field Potential Duration magnitude of effect at MEC ([2]; hiPSC-CM, 72-hour treatment): +20% | Spike Amplitude (SA) magnitude of effect at MEC ([2]; hiPSC-CM, 72-hour treatment): -52%

Cc1ccc(NC(=O)c2ccc(CN3CCN(C)CC3)cc2)cc1Nc1nccc(-c2cccnc2)n1 [Imatinib]
miRNAs hiPSC-CM pellet, MEC overall [1]: 0.3 µM | Spike Amplitude (SA) MEC ([2]; human, 72 h): 0.3 µM
